Values quoted from earlier work as cited in patent publication US20240122968A1, “ENHANCED NITRATE COMPOSITIONS AND METHODS OF USE” (ThermoLife International, LLC, priority 2019, published 2024).
Like-named read-outs stand apart in the source and are kept apart here.

System: blood pressure

Row | SMILES | effect on blood pressure (high doses) | effect on blood pressure (even at doses of 1.5 g per day (Weinberger et al.))
1 | [Zn] [Zinc] | increase blood pressure | –
2 | [Ca+2] [calcium] | – | no notable effects on blood pressure
